Entries after “also recorded” stand apart in the source; their conditions may differ.
What was measured:
MC3T3 E1 cells = assay: BrdU incorporation (DNA synthesis) in partially differentiated MC3T3 E1 osteoblastic cells; type: cell-based, murine; details: 24 h exposure to HU-308
Procedure: (§1) In vitro effect of HU-308: Differentiating primary bone marrow stromal cells and MC3T3 E1 osteoblasts were initially incubated in osteogenic medium for 10 days followed by 2 h serum starvation. Ligands were dissolved in dimethylsulfoxide (DMSO) and further diluted to their final concentration using tissue culture medium. In the primary cultures, cells were counted after 48 h incubation in αMEM supplemented with 4% BSA and ligand. BrdU incorporation was determined in MC3T3 E1 cells after 24 h incubation with HU-308 preceded by 2 h with pertussis toxin (PTX). DNA content, tissue non-specific alkaline phosphatase (TNSALP) activity and calcium were determined in MC3T3 E1 cells grown for 20 days in osteogenic medium and supplemented with HU-308 in the last 14 days. The effect of HU-308 on osteoclast differentiation was measured in the osteoclastogenic system described above, supplemented with HU-308 dissolved initially in DMSO and diluted with medium. HU-308 was also tested in a RAW 264.7 cell grown for 7 days in RANKL-supplemented medium. For osteoclast-like cell counts the cultures were fixed in ethanol and TRAP-stained.

mature MC3T3 E1 cells = assay: DNA content, TNSALP activity and calcium in mature MC3T3 E1 osteoblasts; type: cell-based, murine; details: 20 days osteogenic medium, HU-308 during last 14 days
Procedure: as §1

RAW 264.7 cells = assay: Osteoclast-like cell count in RAW 264.7 cell culture; type: cell-based; details: 7-day RAW 264.7 cell culture supplemented with M-CSF
Procedure: as §1

[1] = tested on: diaphyseal bone marrow derived stromal cells; assay: Cell count, TNSALP activity and mineralization in differentiating primary bone marrow stromal cells (10 days osteogenic medium); type: cell-based, mice; details: for number of diaphyseal bone marrow derived stromal cells: cells grown 10 days in osteogenic medium, counted after 48 h with ligand
Procedure: mRNA analysis: Primary osteoblastogenic cultures of stromal cells were prepared from femoral and tibial diaphyseal bone marrow of WT C57BL/6J mice and grown in “osteogenic medium” containing ascorbic acid, β-glycerophophate and dexamethasone (Sigma) as described by Frenkel et al. (17). Real-time RT-PCR analysis was carried out using Applied Biosystems Assay-on-Demand. Data was normalized GAPDH. Assay ID: GAPDH, Mm99999915_g1; CB1, Mm00432621_s1; CB2, Mm00438286_m1; PTHRc1, Mm00441046_m1; RUNX2, Mm00501578_m1; TNSALP, Mm00475831_m1. RT-PCR analysis was carried out using the primers described by Lee et al. (19).
as §1

[2] = tested on: primary bone marrow derived monocytes; assay: Osteoclast differentiation, TRAP-positive osteoclast-like cell count in bone marrow derived monocyte culture with M-CSF and RANKL; type: cell-based, Mouse; details: 5 days in the presence of M-CSF and RANKL
Procedure: Mouse femoral monocytes were separated on a Ficoll gradient and grown in culture for 5 days in medium containing the osteoclast differentiation factors M-CFS and RANKL as described by Zou et al FASEB J 2002; 16:274-82). At the end of incubation cultures were analyzed for CB2 and FAAH expression by RT-PCR as described above, and were stained with an osteoclast marker tartarate-resistant acid phosphatase for direct observation of differentiated osteoclasts.
as §1, with “Ligands were dissolved in dimethylsulfoxide (DMSO) and further diluted to their final concentration using tissue culture medium.” left out, “HU-308 was also tested in a RAW 264.7 cell grown for 7 days in RANKL-supplemented medium. For osteoclast-like cell counts the cultures were fixed in ethanol and TRAP-stained.” left out

OVX C3H mice = assay: OVX-induced femoral bone loss, μCT and histomorphometry; type: in vivo; details: HU-308 10 mg/Kg/day i.p.
Procedure: Animals: Mice with a deletion of the CNR2 gene (CB2^−/− mice) (9) were crossed for 10 generations to wild type C57BL/6J mice to generate a congenic C57BL/6J CB2^−/− strain. The effect of CB2 signalling on OVX-induced bone loss was analysed in normal C3H mice (Harlan, Israel) due to their high femoral bone density (10), which allows for a substantial amount of bone loss to occur. Because of the low trabecular bone volume density in C57BL/6J females (FIG. 8A), the absolute amount of OVX-induced bone loss in these animals is small and a large sample is required to achieve statistical significance. In addition, the number of calcein labelled packets (see below) in OVX C57BL/6J mice is often too small for the calculation of bone formation parameters in the trabecular compartment. HU-308, synthetic CB2 specific agonist with a MW of 414 g/mol, was prepared as described by Hildebrand et al. (11) and injected intraperitoneally to OVX and control mice once daily as ethanol/emulphor/saline (1:1:18) solution. To study bone formation, newly formed bone was vitally labelled in all reported animals by the fluorochrome calcein (Sigma), injected intraperitoneally (15 mg/Kg) four days and one day prior to sacrifice. Groups of 8-10 mice, 8-11 or 51 weeks old, were used in each experiment. The experimental protocols were approved by the Institutional Animal Care and Use Committee, Faculty of Medicine, the Hebrew University of Jerusalem, Israel and by the Regierungspräsidium Köln for the University of Bonn, Germany.
Micro-computed tomographic (μCT) analysis: The μCT Analyses were performed as described in Example 1 above.
Histomorphometry and immunohistochemistry: After μCT image acquisition, the specimens were embedded undecalcified in Technovit 9100 (Heraeus Kulzer, Wehrheim, Germany). Longitudinal sections through the mid-frontal plane were left unstained for dynamic histomorphometry based on the vital calcein double labeling. To identify osteoclasts, consecutive sections were stained for tartrate-resistant acid phosphatase (TRAP) (14). Parameters were determined according to a standardized nomenclature (15). Immunohistochemistry was performed using paraffin-embedded decalcified sections (16) with a polyclonal first antibody raised against the human CB2(20-33) peptide (Cayman Ann Arbor, Mich.; Cat. No. 101550). The same peptide (Cayman Ann Arbor, Mich.; Cat. No. 301550) was used to block protein-antibody complex formation in control staining.
Statistical Analyses: Differences between CB2^−/− and WT mice were analysed by t-test. HU-308 and vehicle treated OVX and sham-OVX mice were analysed by ANOVA. When significant differences were indicated by ANOVA, group means were compared using the Tukey test for pairwise comparisons.

[3] = tested on: 11 week-old C3H (Harlan) mice; assay: In vivo bone formation activity, calcein dynamic histomorphometry of distal femoral metaphysis
Procedure: The endocannabinoid 2-arachidonoyl glycerol (2AG) and the CB1 cannabinoid receptor antagonist N-(piperidin-1-yl)-5-(4-chlorophenyl)-1-(2,4-dichlorophenyl)4-methyl-1H-pyrazole-3-carboxamide hydrochloride (SR-141761A; Panikashvili et al., Nature 413: 527-531 (2001)] were dissolved in 1:1:18 ethanol:emulfor:saline (v/v/v) vehicle. Different dosages of each agent were daily injected intraperitoneally to 11 week-old C3H (Harlan) mice. 2AG was administered at 0 (vehicle control), 0.5, 5, and 20 mg/Kg body weight per day for 9 days; SR-141761A was administered at 1 and 10 mg/Kg body weight per day for 9 days.
To assess the in vivo bone formation activity the mice were given 15 mg/Kg body weight calcein intrapertoneally, four days and one day (same day as the last 2AG injection) prior to sacrifice. Femoral bones were separated immediately after sacrifice and subjected, undecalcified, to histological processing. Dynamic bone histomorphometric parameters were analyzed in the distal metaphysis (secondary spongiosa) in unstained longitudinal mid-saggital sections, using the procedure described by Parfitt et al. [J. Bone Miner. Res. 2: 595-610 (1987)]. The data obtained were statistically analyzed by Mann-Whitney U-test to determine significance of differences between the treatments.

[4] = early differentiation stage (10 days osteogenic medium)
[5] = 4 weeks from ovariectomy, distal femoral metaphysis
[6] = SR-141761A up to 10 mg/Kg/day i.p. for 9 days, data not shown
[7] = 2AG up to 5 mg/Kg/day i.p. for 9 days, followed by a plateau

For `CCCCCCC(C)(C)c1cc(OC)c([C@H]2C=C(CO)C3CC2C3(C)C)c(OC)c1` (single isomer, unassigned; (+)) [HU-308, (+)-(1-a-H,-(3-H,5-a-H)-4-(2,6-dimethoxy-4-(1,1-dimethylhept-yl)phenyl]-6,6 dimethylbicycloj3.1.1]hept-2-ene-2-carbinol], the “DNA synthesis (BrdU uptake)” value (MC3T3 E1 cells) was “stimulation”, the TNSALP activity (mature MC3T3 E1 cells) was “markedly enhanced” and the “accumulation of extracellular mineral” value (mature MC3T3 E1 cells) was “markedly enhanced”. The “cell number (measured as DNA content)” value (mature MC3T3 E1 cells; compared with partially differentiated cells) was “milder”, the “number of osteoclast-like cells” value (RAW 264.7 cells) was “reduced” and the “number of diaphyseal bone marrow derived stromal cells” value [1] was “potently increased”. For the same compound, the TNSALP activity [1, 4] was “unaffected”, the matrix mineralization [1, 4] was “unaffected” and the “number of osteoclast-like cells” value [2] was “dose dependently inhibited”. For the same compound, the “bone formation in the trabecular compartment” value (OVX C3H mice; 4 weeks from ovariectomy) was “did not stimulate”, the “OVX-induced trabecular bone loss (trabecular bone volume density)” value (OVX C3H mice; [5]) was “attenuation” and the osteoclast number (OVX C3H mice; [5]) was “further inhibited”. The endocortical bone formation (OVX C3H mice; 4 weeks, mid-diaphysis) was “vast stimulation”, the “size of the medullary cavity” value (OVX C3H mice; 4 weeks, mid-diaphysis) was “significant reduction” and the cortical thickness (OVX C3H mice; 4 weeks, mid-diaphysis, exceeded OVX and sham-OVX mice) was “marked increase”.
`Cc1c(C(=O)NN2CCCCC2)nn(-c2ccc(Cl)cc2Cl)c1-c1ccc(Cl)cc1.Cl` [SR-141761A, N-(piperidin-1-yl)-5-(4-chlorophenyl)-1-(2,4-dichlorophenyl)4-methyl-1H-pyrazole-3-carboxamide hydrochloride] was tested, and the “BFR (osteoblastic activity) vs vehicle control” value [3, 6] was “higher (but not statistically different)” and the “MP (osteoblast number) vs vehicle control” value [3, 6] was “higher and statistically different”.
For `CCCCC/C=C\C/C=C\C/C=C\C/C=C\CCCCOC(CO)CO` [Noladin ether, 2-arachidonyl glyceryl ether, reference compound], the “number of diaphyseal bone marrow derived stromal cells” value [1] was “no significant effect”.
`CCCCC/C=C\C/C=C\C/C=C\C/C=C\CCCC(=O)OC(CO)CO` [2AG, 2-arachidonoyl glycerol] was tested, and the “uptake of fluorescently labeled calcein in bone tissue (fluorescent histological images)” value ([3]; 2AG 5 mg/Kg/day vs vehicle-treated controls) was “visibly increased”, the “mineralizing perimeter (MP) vs control” value ([3]; 2AG 5 and 20 mg/Kg/day i.p. for 9 days, p=0.019) was “substantially and significantly higher” and the “bone-formation rate (BFR) higher than the vehicle control” value ([3]; 2AG 5 and 20 mg/Kg/day intraperitoneally for 9 days, p=0.04) was “up to 44%”. For the same compound, the mineral appositional rate ([3]; 2AG i.p. for 9 days) was “no significant effect”, the “bone-formation rate (BFR), dose response” value [3, 7] was “dose-dependent stimulation; also recorded: significant positive dose response effect” and the “mineralizing perimeter (MP), dose response” value [3, 7] was “dose-dependent increase”.
